What was measured:
[1] = Cmax in Wistar Han rat at 3 mg/kg, iv or 10 mg/kg, po; format: ADME, organism-based; settings: in vivo
[2] = Oral bioavailability in Wistar Han rat at 10 mg/kg; format: ADME, organism-based; settings: in vivo
[3] = Clearance in Wistar Han rat at 3 mg/kg, iv; format: ADME, organism-based; settings: in vivo
[4] = AUC (0 to t) in Wistar Han rat at 3 mg/kg, iv or 10 mg/kg, po; format: ADME, organism-based; settings: in vivo
[5] = Half life in Wistar Han rat at 3 mg/kg, iv; format: ADME, organism-based; settings: in vivo
[6] = Volume of distribution at steady state in Wistar Han rat at 3 mg/kg, iv or 10 mg/kg, po; format: ADME, organism-based; settings: in vivo, read-out: Vdss
[7] = Lipophilicity, log D of the compound; format: physicochemical; settings: octanol/water

Cmax [1]	bioavailability [2]	clearance [3]	AUC(0-t) [4]	half-life [5]	Vd [6]	logD [7]	Compound
2900 nM	80%	56 mL/min/kg	5.5 µM·h	1 h	1.8 L/kg	–	CC(C)Nc1ccc2ccn(-c3cncc(-c4ccc(C(=O)O)cc4)n3)c2c1
830 nM	24%	19 mL/min/kg	5.5 µM·h	7.1 h	1 L/kg	1.06	CC(C)Nc1ccc2cnn(-c3cncc(-c4ccc(C(=O)O)cc4)n3)c2c1
